Measured values published in publication PMC11182572, “Mining Bovine Milk Proteins for DPP-4 Inhibitory Peptides Using Machine Learning and Virtual Proteolysis” (Research, 2024).
Read-outs that look alike come from different tables or passages of the source. No end group written: not given here.

Legend:
DPP-4 [1] = target: T1, DPP-4 (Homo sapiens, UniProt P27487); experiment: DPP-4 inhibitory activity (Gly-Pro-p-nitroanilide substrate); type: biochemical; settings: for IC50: 25 μl sample + 25 μl Gly-Pro-p-nitroanilide (3.2 mM), preincubated 37 °C 10 min, 50 μl DPP-4 (0.02 U/ml), 60 min, 100 mM tris buffer (pH 7.6), absorbance at 405 nm
T1 construct: purchased Sigma-Aldrich Co., St. Louis, MO, USA
Method: Determination of DPP-4 inhibitory activity
The DPP-4 inhibitory activity of the synthesized peptides was determined as previously described, with slight modifications. Briefly, 25 μl of the sample and 25 μl of Gly-Pro-p-nitroanilide (3.2 mM) were preincubated at 37 °C for 10 min before 50 μl of DPP-4 (0.02 U/ml) was added to the mixture (Sigma-Aldrich Co., St. Louis, MO, USA). After 60 min, the reaction was halted by adding 100 μl of 1 M sodium acetate solution. The absorbance at 405 nm was measured using a microplate reader (Thermo Fisher Scientific, Waltham, MA, USA). DPP-4 inhibition (DI) was calculated as follows: DI%=1−Asample−Asample blank/Apositive−Anegative×100% (5) where A(sample) represents the optical density of DPP-4 in the presence of both the substrate and peptide. A(sample blank) represents the optical density of the 100 mM tris buffer (pH 7.6). A(positive) represents the optical density of the enzyme and substrate in the absence of an inhibitor. A(negative) represents the optical density of the enzyme in the absence of substrate and inhibitor.

DPP-4 [2] = target: T1, DPP-4; settings: methodologies differ among studies; cited from earlier work

T1 sequence (P27487 whole entry, species assumed): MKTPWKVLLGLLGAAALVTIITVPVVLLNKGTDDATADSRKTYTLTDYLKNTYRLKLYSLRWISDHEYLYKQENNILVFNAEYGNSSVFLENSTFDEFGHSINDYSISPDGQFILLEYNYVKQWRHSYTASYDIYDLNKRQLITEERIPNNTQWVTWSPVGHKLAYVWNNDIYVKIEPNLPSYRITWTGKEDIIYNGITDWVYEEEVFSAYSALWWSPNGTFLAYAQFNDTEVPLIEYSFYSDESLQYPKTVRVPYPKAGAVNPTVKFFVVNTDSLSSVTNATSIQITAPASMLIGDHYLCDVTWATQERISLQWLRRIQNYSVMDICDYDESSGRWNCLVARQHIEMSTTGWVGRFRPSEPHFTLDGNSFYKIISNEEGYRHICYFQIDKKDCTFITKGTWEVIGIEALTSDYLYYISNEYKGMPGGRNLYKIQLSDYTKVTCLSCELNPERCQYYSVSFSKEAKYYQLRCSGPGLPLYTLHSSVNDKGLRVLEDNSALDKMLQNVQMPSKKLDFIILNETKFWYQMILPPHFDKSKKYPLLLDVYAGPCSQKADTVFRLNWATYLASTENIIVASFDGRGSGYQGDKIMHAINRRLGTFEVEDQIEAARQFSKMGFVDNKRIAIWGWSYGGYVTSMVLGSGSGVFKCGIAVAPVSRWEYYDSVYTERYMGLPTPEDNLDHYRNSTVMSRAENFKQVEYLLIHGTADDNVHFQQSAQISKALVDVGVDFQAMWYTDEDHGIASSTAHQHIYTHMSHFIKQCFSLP

Substance: FVAPFPEV [peptide from α-S1-casein, pepsin (pH 1.3), pepsin (pH > 2); synthesized]
- DPP-4 inhibitory effect (in words) (DPP-4 [1]; in vitro): poor inhibitory effect

Substance: TPEVDDEALEK [peptide from previous study [6]]
- IC50 (DPP-4 [2]): 320 µM

Substance: HPHPHL [HPHPHL]
- IC50 (DPP-4 [1]): 1.61 mM

Substance: GPVRGPF [GPVRGPF]
- IC50 (DPP-4 [1]): 0.645 mM
